Assays:
Plasmodium falciparum [1] = assay: NOVARTIS: Inhibition of Plasmodium falciparum 3D7 (drug-susceptible) proliferation in erythrocyte-based infection assay; type: functional, organism-based; settings: Plasmodium falciparum, 3D7
[2] = NOVARTIS: Cytotoxicity against human hepatocellular carcinoma cell line (Huh7); type: toxicity, cell-based, Huh-7; settings: Huh7 cells (hepatocellular carcinoma cell line)
Plasmodium falciparum [3] = assay: NOVARTIS: Inhibition of Plasmodium falciparum W2 (drug-resistant) proliferation in erythrocyte-based infection assay; type: functional, organism-based; settings: Plasmodium falciparum, W2; read-out: EC50

Row | SMILES | EC50 (Plasmodium falciparum [1]) [nM] | CC50 [2] [nM] | EC50 (Plasmodium falciparum [3]) [nM]
1 | Cc1ccc(C=NNc2ncnc3nc[nH]c23)cc1 | 697 | > 100000 | 804
2 | COc1ccc2nc(C)cc(Nc3ccc(Cl)c(Cl)c3)c2c1 | 249 | 6250 | 426
3 | Cc1cn2c3ccccc3n(CCN3CCOCC3)c2n1 | > 2480 | > 100000 | > 12500
4 | COc1cc(NC(C)CCCN(Cc2ccc(OC)c(OC)c2)C(=O)CCC2CCCC2)c2ncccc2c1 (configuration not stated) | 687 | 3990 | 333
5 | Cc1nc(CC(=O)N2CCCC(CNC(=O)C3(c4ccc(Cl)cc4)CC3)C2)cs1 (configuration not stated) | > 12500 | > 100000 | 5020
6 | COc1cc(O)c2c(=O)cc(CCOC(=O)Nc3ccccc3)[nH]c2c1 | > 905 | > 10000 | > 1250
7 | Brc1ccc(Nc2nc3ccccc3nc2Nc2ccc(Br)cc2)cc1 | 809 | 20600 | 854
8 | COc1cc(C(=O)C=CNc2ccc(N(C)C)cc2)cc(OC)c1OC | 2070 | > 100000 | 905
9 | O=C(NCc1ccccc1)c1cnc(NCCCn2ccnc2)nc1NCC1CCCCC1 | 311 | > 10000 | 1040
10 | CCOC(=O)C1=C(C)N=c2sc(=Cc3ccccc3OCc3ccccc3)c(=O)n2C1c1ccccc1OC(C)C (configuration not stated) | 9730 | > 100000 | > 12500
11 | CCN1/C(=C/c2sc3ccccc3[n+]2CC)C=Cc2cc(NC(C)=O)ccc21 | 255 | > 10000 | 225
12 | OCC1CCCN1c1nccnc1-c1ccccc1Oc1ccccc1 (configuration not stated) | > 868 | > 10000 | > 1250
13 | OC(CCNC1CCCCC1)COc1cccc2ccccc12 (configuration not stated) | 789 | > 10000 | 366
14 | CCCCc1c(C)nc2ccc(Br)cc2c1O | 1960 | > 100000 | 532
15 | Cc1ccc(C[n+]2cc(-c3ccc(F)cc3)n3c2CCC3)cc1 | 867 | > 100000 | 321
16 | c1cc(NCc2ccc3c(c2)OCO3)n2ncc(-c3ccoc3)c2n1 | > 1250 | > 10000 | > 1020
17 | N=c1c2c(n(Cc3ccc(F)cc3)c3c1CCC3)CCC2 | 266 | > 100000 | 202
18 | CN1CCN(c2nc(NCCNc3ccc([N+](=O)[O-])cc3)c3ccccc3n2)CC1 | 537 | 19000 | 424
19 | CCc1ccc(C(=O)N(CCc2ccccc2)C(CC)c2nc3ccccc3c(=O)n2-c2ccccc2OC)cc1 (configuration not stated) | 389 | > 9700 | 1.5
20 | Cc1cc(Nc2cccc(C(F)(F)F)c2)nc(N)n1 | 676 | 39600 | 1860
21 | O=C(Cn1ccc(=NCc2ccccc2)cc1)c1cccc([N+](=O)[O-])c1 | 397 | > 10000 | 439
22 | CCOC(=O)c1c(S(=O)(=O)N2CCCC(C(=O)N3CCN(c4cccc(C)c4C)CC3)C2)c(C)n(C)c1C (configuration not stated) | 923 | > 100000 | 2120
23 | CC(O)c1ccc(NC(=O)c2cnn3c2NC(c2ccco2)CC3C(F)(F)F)cc1 (configuration not stated) | > 1250 | > 10000 | > 675

Row | SMILES | EC50 (Plasmodium falciparum [1]) [nM] | CC50 [2] [nM] | EC50 (Plasmodium falciparum [3]) [nM]
24 | CN(C)c1cc[n+](CC(=O)c2ccc(Cl)cc2)cc1 | 168 | > 100000 | 132
25 | COc1ccc(C2CC(c3cccs3)=NN2C(=O)CSc2nnc(CNC(=O)c3cccs3)n2-c2cccc(C)c2)cc1 (configuration not stated) | 10400 | > 100000 | 1610
26 | CCCCCCN(CCCCCC)CC(O)c1cc(-c2ccc(Cl)cc2)nc2c(C)cc(C)cc12 (configuration not stated) | 7130 | 51900 | 5940
27 | COc1cccc(-c2cncc(-c3cncc(OC)c3)n2)c1 | 701 | > 100000 | 803
28 | COc1cccc(NC(=O)c2ccc(NCCCN3CC(C)CC(C)C3)c([N+](=O)[O-])c2)c1 (configuration not stated) | 275 | > 100000 | 509
29 | CCCCN1C(=O)N(c2ccccc2C)C(C)(O)CC1(C)C (configuration not stated) | > 1520 | > 10000 | > 261
30 | CC(C)NCC(O)Cn1c2ccc(Br)cc2c2cc(Br)ccc21 (configuration not stated) | 216 | 3360 | 54.4
31 | Cn1c(C(C#N)C(=S)NC2CCCCC2)nc2cccnc21 (configuration not stated) | > 1250 | > 10000 | > 894
32 | CN(C)c1ccc(Nc2nc(NCC3CCCO3)c3ccccc3n2)cc1 (configuration not stated) | 852 | 11400 | 805
33 | CCOC(=O)CN1C(=O)c2ccccc2Sc2ncccc21 | > 1120 | > 10000 | > 644
34 | O=C(NCc1ccccc1)c1cnc(NCCC(c2ccccc2)c2ccccc2)nc1NCC1CCCCC1 | 527 | > 10000 | 292
35 | C=C[C@H]1CN2CC[C@H]1C[C@@H]2[C@@H](OC(=O)Cc1ccccc1)c1ccnc2ccccc12 | 49.4 | > 10000 | 51.7
36 | CN1CCN(c2c3c(c(C#N)c4nc5ccccc5n24)CCC3)CC1 | 1180 | > 100000 | > 6490
37 | CCOC(=O)c1ccc(N2CCN(c3cc(C)ccc3C)CC2)c(NC(=O)Nc2ccc(Cl)cc2)c1 | > 3540 | > 100000 | 691
38 | COc1ccc2nc3cc(Cl)ccc3c(NCCN(CCN)CCN)c2c1 | 808 | > 10000 | 254
39 | N#Cc1ccc(CNC(=S)Nc2cc(Cl)ccc2Cl)cc1 | 421 | > 100000 | 238
40 | CC1CCN(Cc2c(O)ccc3cc(-c4nc5ccccc5s4)c(=O)oc23)CC1 | > 12500 | > 100000 | 1470
41 | CCN(CC)CCNc1ccnc2cc3ccccc3cc12 | 28.6 | 20300 | 31.3
42 | CCCCN(C)C(=O)c1sc2ncn(CC(=O)N(CC)CC)c(=O)c2c1C | > 1250 | > 10000 | > 1010
43 | CCOC(=O)C1=C(C)NC2=C(C(=O)C(C(=O)OCC)C(c3cccc(OC)c3)C2)C1c1ccc(OC)c(OC)c1 (configuration not stated) | 376 | > 100000 | 167
44 | Cc1cn2c3ccccc3n(CCN3CCCC3)c2n1 | 995 | 60500 | 889
45 | CN(CCCNc1ccnc2cc(Cl)ccc12)C(=O)/C=C/c1ccccc1 | 371 | > 10000 | 286
46 | CCOC(=O)c1cnc2ccc(Cl)cc2c1Nc1ccc(OC)c(OC)c1 | 2670 | > 100000 | 4430

Row | SMILES | EC50 (Plasmodium falciparum [1]) [nM] | CC50 [2] [nM] | EC50 (Plasmodium falciparum [3]) [nM]
47 | Cc1ccc(Nc2nc(N)c3ccccc3n2)cc1Cl | 527 | 8920 | 755
48 | CCNc1nc(NC(C)CC)nc(ON=C(C)C)n1 (configuration not stated) | 441 | > 100000 | 118
49 | COc1ccc(C2CC3=NC(C)=C(C(=O)OC(C)C)C(c4ccccc4OC)C3=C(O)C2)cc1OC (configuration not stated) | 91.9 | > 100000 | 39.8
50 | O=C(NCc1ccco1)c1ccc(OC2CCN(CC3CCCCC3)CC2)c(Cl)c1 | 95.1 | 23500 | 23.6
51 | Cc1noc(C)c1C(=O)N1CCC(O)(c2ccccn2)CC1 | > 563 | > 10000 | > 1400
52 | CCN1/C(=C\C=C2/SC(=S)N(c3ccccc3)C2=O)C(C)(C)c2cc(-c3ccccc3)ccc21 | 128 | > 8660 | 318
53 | CNC1=C(N(Cc2ccc(Cl)c(Cl)c2)C(C)=O)C(=O)c2ccccc2C1=O | 1.23 | 126 | 1.26
54 | Cc1ccn2c(NC(C)(C)CC(C)(C)C)c(-c3ccccc3OC(=O)c3cccc(F)c3)nc2c1 | 581 | > 10000 | < 8.37
55 | CCCCCCN(C(=O)COc1ccc(Cl)cc1)C(CC)c1nc2ccccc2c(=O)n1-c1cccc(Cl)c1 (configuration not stated) | 433 | > 10000 | 1140
56 | O=C(Nc1ccc(C(F)(F)F)cc1)c1cc(S(=O)(=O)NC2CCCCCC2)ccc1F | 4000 | 17700 | 3330
57 | CC1CCN(CCCNc2ccc(C(=O)Nc3ccc(C(F)(F)F)cc3)cc2[N+](=O)[O-])CC1 | 199 | 23400 | 278
58 | COc1cc(OC)c(NC(=O)C2c3ccccc3C(=O)N(CC(C)C)C2c2cccs2)cc1Cl (configuration not stated) | 114 | > 100000 | 90.5
59 | COc1ccc(-c2nnc(NC(=O)CCN(CCc3ccc(OC)c(OC)c3)C(=O)c3cccc4ccccc34)s2)cc1 | 934 | > 13600 | > 1200
60 | CC(=O)N1CCc2cc(NC3CCN(Cc4ccccc4)CC3)ccc21 | > 1250 | > 10000 | > 656
61 | OC1(c2ccc(Br)cc2)CCN(C2CCN(CCc3ccccc3)CC2)CC1 | 136 | 4770 | 527
62 | CCN(CC)CCN(Cc1cc2c(C)cc(C)cc2[nH]c1=O)C(=S)NCCCN(C)C | 1850 | > 76300 | 723
63 | CCc1ccccc1-n1c(C(C)N(C)C(=O)/C=C/c2ccc([N+](=O)[O-])cc2)nc2ccccc2c1=O (configuration not stated) | 266 | 8350 | 174
64 | C[n+]1ccc(/C=C/c2ccccc2F)c2ccccc21 | 65.3 | > 10000 | < 5.24
65 | CCOC(=O)C1=C(C)NC2=C(C(=O)CC(C)(C)C2)C1c1ccc(Cl)cc1Cl (configuration not stated) | 281 | 66000 | 121
66 | COc1cc2c(cc1OC)C1=NC(=O)C(C(C)C)N1C(SCc1csc(Cl)n1)=N2 (configuration not stated) | > 1420 | 14300 | 31.6
67 | NC(=O)/C(=C\c1cccc2ccccc12)NC(=O)c1ccccc1 | > 1140 | > 10000 | > 1250
68 | CCN(CC)CCCNC(=S)N(Cc1ccccc1)Cc1cc2cc(C)c(Cl)cc2[nH]c1=O | 1940 | 20900 | 1160
69 | COc1cc(NC(C)CCCN(Cc2ccccc2OC)C(=O)c2cccc(Br)c2)c2ncccc2c1 (configuration not stated) | > 948 | > 6430 | 563
